Test results from ChEMBL document CHEMBL1129124, “Thromboxane modulating agents. 2. Thromboxane receptor antagonists derived from the thromboxane synthase inhibitor dazmegrel” (Bioorg Med Chem Lett, 1996).

How the values were obtained:
[1] = biological target: T1, Thromboxane-A synthase (Homo sapiens, UniProt P24557); assay: Inhibitory activity against human platelet microsomal TXA2 synthase
T1 sequence (P24557 whole entry): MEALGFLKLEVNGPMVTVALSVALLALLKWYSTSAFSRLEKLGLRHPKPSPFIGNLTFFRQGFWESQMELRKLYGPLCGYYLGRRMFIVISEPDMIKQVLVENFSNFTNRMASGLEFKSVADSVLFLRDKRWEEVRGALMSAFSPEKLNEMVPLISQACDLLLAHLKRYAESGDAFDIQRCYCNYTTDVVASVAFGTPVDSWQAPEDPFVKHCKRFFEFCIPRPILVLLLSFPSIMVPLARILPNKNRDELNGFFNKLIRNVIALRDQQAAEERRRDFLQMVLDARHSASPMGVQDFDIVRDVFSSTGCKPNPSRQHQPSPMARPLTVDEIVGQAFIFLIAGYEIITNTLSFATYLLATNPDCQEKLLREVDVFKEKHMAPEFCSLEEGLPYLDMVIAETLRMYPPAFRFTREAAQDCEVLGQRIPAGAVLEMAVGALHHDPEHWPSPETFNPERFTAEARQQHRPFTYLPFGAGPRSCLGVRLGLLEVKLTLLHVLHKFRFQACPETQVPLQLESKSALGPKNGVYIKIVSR

[2] = biological target: T2, Thromboxane A2 receptor (Rattus norvegicus, UniProt P34978); assay: Compound was tested for TXA2 receptor antagonism by measuring its ability to inhibit contraction of rat aorta induced by the stable TXA2 agonist U-46,619 at 1 umol; format: functional, tissue-based; settings: read-out: pA2 (converted)
T2 sequence (P34978 whole entry): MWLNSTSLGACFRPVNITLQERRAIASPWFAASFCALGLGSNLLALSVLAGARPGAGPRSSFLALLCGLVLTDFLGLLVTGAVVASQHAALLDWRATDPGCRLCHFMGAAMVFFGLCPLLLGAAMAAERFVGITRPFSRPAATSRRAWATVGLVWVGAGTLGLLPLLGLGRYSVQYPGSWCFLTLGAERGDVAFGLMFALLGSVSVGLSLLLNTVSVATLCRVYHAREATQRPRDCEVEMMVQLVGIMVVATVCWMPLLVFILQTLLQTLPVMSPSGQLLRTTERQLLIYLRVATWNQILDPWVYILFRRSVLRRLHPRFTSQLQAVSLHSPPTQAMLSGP

| SMILES | IC50 [1] | Kb [2] |
| --- | --- | --- |
| O=C(O)CCn1cc(Cn2ccnc2)c2cc(NS(=O)(=O)c3ccc(F)cc3)ccc21 | 34 nM | 6.31 nM |
| O=C(O)CCn1ccc2cc(NS(=O)(=O)c3ccc(F)cc3)ccc21 | – | 3.72 nM |
| COc1ccc(S(=O)(=O)Nc2ccc3c(c2)c(Cc2ccc(F)cc2)cn3CCC(=O)O)cc1 | – | 0.174 nM |
| O=C(O)CCn1cc(Cc2ccc(F)cc2)c2cc(NS(=O)(=O)c3ccc(Cl)cc3)ccc21 | – | 0.234 nM |
| O=C(O)CCn1cc(Cc2ccc(F)cc2)c2cc(NS(=O)(=O)c3ccccc3)ccc21 | – | 0.676 nM |
| O=C(O)CCCc1ccc(NS(=O)(=O)c2ccc(Cl)cc2)cc1 | – | 100 nM |
| Cc1c(Cn2ccnc2)c2cc(NS(=O)(=O)c3ccc(F)cc3)ccc2n1CCC(=O)O | 19 nM | 3800 nM |
| Cc1ccc(S(=O)(=O)Nc2ccc3c(c2)c(Cc2ccc(F)cc2)cn3CCC(=O)O)cc1 | – | 0.269 nM |
| O=C(O)CCn1ccc2cc(NS(=O)(=O)c3ccc(Cl)cc3)ccc21 | – | 2.75 nM |
| O=C(O)CCn1cc(Cc2cccnc2)c2cc(NS(=O)(=O)c3ccc(F)cc3)ccc21 | 48 nM | 1.41 nM |
| O=C(O)CCn1cc(Cc2ccc(F)cc2)c2cc(NS(=O)(=O)c3ccc(F)cc3)ccc21 | – | 0.479 nM |
| Cc1c(Cn2ccnc2)c2ccccc2n1CCC(=O)O [DAZMEGREL] | – | > 1000 nM |
